In the experiment the test system is MV-4-11 cells. In words: Gene expression microarray analysis (Affymetrix PrimeView) and GSEA. The format is cell-based, human. On the set-up: RFU PODN (11730768_x_at) / Fold change /veh PODN (11730768_x_at) / RFU LINC00158 (11744669_a_at) / Fold change /veh LINC00158 (11744669_a_at) / RFU DUSP10 (11751237_a_at) / Fold change /veh DUSP10 (11751237_a_at) / RFU ID3 (11757404_x_at) / Fold change /veh ID3 (11757404_x_at) / RFU PLEKHG5 (11737974_s_at) / Fold change /veh PLEKHG5 (11737974_s_at) / RFU LRRC4B (11730491_at) / Fold change /veh LRRC4B (11730491_at) / RFU GIMAP4 (11747438_a_at) / Fold change /veh GIMAP4 (11747438_a_at) / RFU KRT8 (11758183_x_at) / Fold change /veh KRT8 (11758183_x_at) / RFU CNN1 (11734310_a_at) / Fold change /veh CNN1 (11734310_a_at) / RFU VPS37D (11726825_at) / Fold change /veh VPS37D (11726825_at) / RFU C10orf10 (11716522_x_at) / Fold change /veh C10orf10 (11716522_x_at) / RFU KIR2DL2 /// KIR2DL4 /// KIR2DL5A /// KIR2DL5B /// KIR2DS1 /// KIR2DS2 /// KIR2DS3 /// KIR2DS4 /// KIR3DL3 /// KIR3DL3 /// KIR3DS1 (11738374_at) / Fold change /veh KIR2DL2 /// KIR2DL4 /// KIR2DL5A /// KIR2DL5B /// KIR2DS1 /// KIR2DS2 /// KIR2DS3 /// KIR2DS4 /// KIR3DL3 /// KIR3DL3 /// KIR3DS1 (11738374_at) / RFU C1QL1 (11718748_at) / Fold change /veh C1QL1 (11718748_at) / RFU TMPRSS4 (11747572_a_at) / Fold change /veh TMPRSS4 (11747572_a_at) / RFU HAMP (11756126_x_at) / Fold change /veh HAMP (11756126_x_at) / RFU RNFT2 (11725882_a_at) / Fold change /veh RNFT2 (11725882_a_at) / RFU NR4A2 (11747474_a_at) / Fold change /veh NR4A2 (11747474_a_at) / RFU ABCC12 (11746883_a_at) / Fold change /veh ABCC12 (11746883_a_at) / RFU TMEM136 (11760407_x_at) / Fold change /veh TMEM136 (11760407_x_at) / RFU CLDN22 /// WWC2 (11732394_at) / Fold change /veh CLDN22 /// WWC2 (11732394_at) / RFU HLA-DPB1 (11760878_x_at) / Fold change /veh HLA-DPB1 (11760878_x_at) / RFU SPINT1 (11716480_a_at) / Fold change /veh SPINT1 (11716480_a_at) / RFU GAP43 (11754022_s_at) / Fold change /veh GAP43 (11754022_s_at) / RFU A4GNT (11735810_at) / Fold change /veh A4GNT (11735810_at) / RFU PRB3 (11715151_x_at) / Fold change /veh PRB3 (11715151_x_at) / RFU TUBB4B (11761932_at) / Fold change /veh TUBB4B (11761932_at) / RFU CAPN14 (11732068_a_at) / Fold change /veh CAPN14 (11732068_a_at) / RFU TMCC2 (11721928_a_at) / Fold change /veh TMCC2 (11721928_a_at) / RFU IRGQ (11745062_a_at) / Fold change /veh IRGQ (11745062_a_at) / RFU FAM174B (11720279_a_at) / Fold change /veh FAM174B (11720279_a_at) / RFU TMPRSS4 (11748680_a_at) / Fold change /veh TMPRSS4 (11748680_a_at) / RFU FAM212B (11763350_a_at) / Fold change /veh FAM212B (11763350_a_at) / RFU PLEKHG5 (11743358_a_at) / Fold change /veh PLEKHG5 (11743358_a_at) / RFU ZSCAN30 (11745921_a_at) / Fold change /veh ZSCAN30 (11745921_a_at) / RFU CMKLR1 (11741424_a_at) / Fold change /veh CMKLR1 (11741424_a_at) / RFU LOC101060620 /// MAPK8IP1 (11723275_at) / Fold change /veh LOC101060620 /// MAPK8IP1 (11723275_at) / RFU SPTSSB (11747773_x_at) / Fold change /veh SPTSSB (11747773_x_at) / RFU PRSS12 (11739890_at) / Fold change /veh PRSS12 (11739890_at) / RFU BIN1 (11741810_x_at) / Fold change /veh BIN1 (11741810_x_at) / RFU WNT11 (11732464_a_at) / Fold change /veh WNT11 (11732464_a_at) / RFU C10orf10 (11716521_a_at) / Fold change /veh C10orf10 (11716521_a_at) / RFU C5orf56 (11738089_at) / Fold change /veh C5orf56 (11738089_at) / RFU CYB561 (11721691_x_at) / Fold change /veh CYB561 (11721691_x_at) / RFU ANKRD19P (11752326_a_at) / Fold change /veh ANKRD19P (11752326_a_at) / RFU OR2T12 /// OR2T33 /// OR2T8 (11738714_s_at) / Fold change /veh OR2T12 /// OR2T33 /// OR2T8 (11738714_s_at) / RFU VCAN (11748164_a_at) / Fold change /veh VCAN (11748164_a_at) / RFU JSRP1 (11732532_at) / Fold change /veh JSRP1 (11732532_at) / RFU KRTAP10-11 (11738290_x_at) / Fold change /veh KRTAP10-11 (11738290_x_at) / RFU MYO3A (11730013_a_at) / Fold change /veh MYO3A (11730013_a_at) / RFU EBF3 (11725865_a_at) / Fold change /veh EBF3 (11725865_a_at) / RFU CAMK2N1 (11719241_x_at) / Fold change /veh CAMK2N1 (11719241_x_at) / RFU C5orf56 (11738088_a_at) / Fold change /veh C5orf56 (11738088_a_at) / RFU OLFML3 (11715873_a_at) / Fold change /veh OLFML3 (11715873_a_at) / RFU LOC100653217 /// NTM (11731650_a_at) / Fold change /veh LOC100653217 /// NTM (11731650_a_at) / RFU MAPK11 (11762145_a_at) / Fold change /veh MAPK11 (11762145_a_at) / RFU FIZ1 (11724087_x_at) / Fold change /veh FIZ1 (11724087_x_at) / RFU OASL (11726364_x_at) / Fold change /veh OASL (11726364_x_at) / RFU SOX15 (11748057_x_at) / Fold change /veh SOX15 (11748057_x_at) / RFU CD79A (11719716_a_at) / Fold change /veh CD79A (11719716_a_at) / RFU HIST1H1D (11736915_at) / Fold change /veh HIST1H1D (11736915_at) / RFU CASKIN2 (11723855_a_at) / Fold change /veh CASKIN2 (11723855_a_at) / RFU LOC730098 (11760151_x_at) / Fold change /veh LOC730098 (11760151_x_at) / RFU OR4N2 (11742367_at) / Fold change /veh OR4N2 (11742367_at) / RFU PRRT2 (11749266_a_at) / Fold change /veh PRRT2 (11749266_a_at) / RFU SNX32 (11753110_a_at) / Fold change /veh SNX32 (11753110_a_at) / RFU CDHR5 (11726645_a_at) / Fold change /veh CDHR5 (11726645_a_at) / RFU RCAN1 (11760418_a_at) / Fold change /veh RCAN1 (11760418_a_at) / RFU FAM167A (11723789_a_at) / Fold change /veh FAM167A (11723789_a_at) / RFU FAM26E (11764081_at) / Fold change /veh FAM26E (11764081_at) / RFU ISYNA1 (11749810_s_at) / Fold change /veh ISYNA1 (11749810_s_at) / RFU ACY1 (11761880_at) / Fold change /veh ACY1 (11761880_at) / RFU 11764098_at / Fold change /veh 11764098_at / RFU SAMD14 (11745864_x_at) / Fold change /veh SAMD14 (11745864_x_at) / RFU NPB (11741838_a_at) / Fold change /veh NPB (11741838_a_at) / RFU TMPRSS6 (11731388_a_at) / Fold change /veh TMPRSS6 (11731388_a_at) / RFU KRTAP10-2 (11738614_at) / Fold change /veh KRTAP10-2 (11738614_at) / RFU ARHGAP8 /// PRR5-ARHGAP8 (11727945_x_at) / Fold change /veh ARHGAP8 /// PRR5-ARHGAP8 (11727945_x_at) / RFU KRTAP5-7 /// NADSYN1 (11734609_at) / Fold change /veh KRTAP5-7 /// NADSYN1 (11734609_at) / RFU RASL12 (11751679_a_at) / Fold change /veh RASL12 (11751679_a_at) / RFU CDKN2B (11736163_a_at) / Fold change /veh CDKN2B (11736163_a_at) / RFU PRF1 (11729649_at) / Fold change /veh PRF1 (11729649_at) / RFU, ZNF638 /// ZNF638-IT1 / Fold change vs veh, ZNF638 /// ZNF638-IT1 / RFU, PANK3 / Fold change vs veh, PANK3 / RFU, SH3YL1 / Fold change vs veh, SH3YL1 / RFU, ZEB2 / Fold change vs veh, ZEB2 / RFU, NRIP1 / Fold change vs veh, NRIP1 / RFU, PTTG1IP / Fold change vs veh, PTTG1IP / RFU, CAPN2 / Fold change vs veh, CAPN2 / RFU, MED14 / Fold change vs veh, MED14 / RFU, SNORA58 / Fold change vs veh, SNORA58 / RFU, C1orf63 / Fold change vs veh, C1orf63 / RFU, LRRFIP1 / Fold change vs veh, LRRFIP1 / RFU, NDUFAF7 / Fold change vs veh, NDUFAF7 / RFU, SLC12A2 / Fold change vs veh, SLC12A2 / RFU, IBTK / Fold change vs veh, IBTK / RFU, ESF1 / Fold change vs veh, ESF1 / Fold change vs veh, TMEM50B / RFU, TAOK1 / Fold change vs veh, TAOK1 / RFU, ACBD3 / Fold change vs veh, ACBD3 / RFU, TMA16 / Fold change vs veh, TMA16 / RFU, RWDD3 / Fold change vs veh, RWDD3 / RFU, BCAT1 / Fold change vs veh, BCAT1 / RFU, EDEM3 / Fold change vs veh, EDEM3 / RFU, TMEM33 / Fold change vs veh, TMEM33 / RFU, WDR75 / Fold change vs veh, WDR75 / RFU, AHCTF1 / Fold change vs veh, AHCTF1 / RFU, TFRC / Fold change vs veh, TFRC / RFU, ZDHHC17 / Fold change vs veh, ZDHHC17 / RFU, NOM1 / Fold change vs veh, NOM1 / RFU, ARL8B / Fold change vs veh, ARL8B / RFU, ZBTB11 / Fold change vs veh, ZBTB11 / RFU, TAMM41 / Fold change vs veh, TAMM41 / RFU, KIAA1704 /// LOC100996395 / Fold change vs veh, KIAA1704 /// LOC100996395 / RFU, ING1 / Fold change vs veh, ING1 / RFU, TRMT61B / Fold change vs veh, TRMT61B / RFU, FUBP3 / Fold change vs veh, FUBP3 / RFU, TP53 / Fold change vs veh, TP53 / RFU, TNKS2 / Fold change vs veh, TNKS2 / RFU, ZFP14 / Fold change vs veh, ZFP14 / RFU, ACTR2 / Fold change vs veh, ACTR2 / RFU, PPP3R1 / Fold change vs veh, PPP3R1 / RFU, PIK3R1 / Fold change vs veh, PIK3R1 / RFU, HNRNPA1 / Fold change vs veh, HNRNPA1 / RFU, RNF170 / Fold change vs veh, RNF170 / RFU, ZNF28 / Fold change vs veh, ZNF28 / RFU, RNGTT / Fold change vs veh, RNGTT / RFU, OGT / Fold change vs veh, OGT / RFU, BRD1 / Fold change vs veh, BRD1 / RFU, MARS / Fold change vs veh, MARS / RFU, ZNF655 / Fold change vs veh, ZNF655 / RFU, FAHD1 / Fold change vs veh, FAHD1 / RFU, BDP1 / Fold change vs veh, BDP1 / RFU, LRRCC1 / Fold change vs veh, LRRCC1 / RFU, ARID1A / Fold change vs veh, ARID1A / RFU, ZNF146 / Fold change vs veh, ZNF146 / RFU, ZNF330 / Fold change vs veh, ZNF330 / RFU, GPN3 / Fold change vs veh, GPN3 / RFU, C9orf123 / Fold change vs veh, C9orf123 / RFU, N4BP2L2 / Fold change vs veh, N4BP2L2 / RFU, ARFIP1 / Fold change vs veh, ARFIP1 / RFU, FAM179B / Fold change vs veh, FAM179B / RFU, BCL10 / Fold change vs veh, BCL10 / RFU, UHRF1BP1L / Fold change vs veh, UHRF1BP1L / RFU, BET1 / Fold change vs veh, BET1 / RFU, CNOT2 / Fold change vs veh, CNOT2 / RFU, ZNF268 / Fold change vs veh, ZNF268 / Fold change vs veh, ZNF507 / RFU, DGCR2 / Fold change vs veh, DGCR2 / RFU, WDSUB1 / Fold change vs veh, WDSUB1 / Fold change vs veh, HSP90B1 /// MIR3652 / RFU, ADSS / Fold change vs veh, ADSS / RFU, GK / Fold change vs veh, GK / RFU, ZNF148 / Fold change vs veh, ZNF148 / RFU, TAF9 / Fold change vs veh, TAF9 / RFU, SLC1A5 / Fold change vs veh, SLC1A5 / RFU, SLMO2 / Fold change vs veh, SLMO2 / RFU, ABCC4 / Fold change vs veh, ABCC4 / RFU, LOC101060439 /// RAP1B / Fold change vs veh, LOC101060439 /// RAP1B / RFU, RFX7 / Fold change vs veh, RFX7 / RFU, GTPBP10 / Fold change vs veh, GTPBP10 / RFU, CNEP1R1 / Fold change vs veh, CNEP1R1 / RFU, BIVM-ERCC5 /// ERCC5 / Fold change vs veh, BIVM-ERCC5 /// ERCC5 / RFU, ILF3 / Fold change vs veh, ILF3 / RFU 11762660_at / Fold change /veh 11762660_at / RFU VCAN (11757783_s_at) / Fold change /veh VCAN (11757783_s_at) / RFU DDX43 (11728927_at) / Fold change /veh DDX43 (11728927_at) / RFU KRT8 (11758188_x_at) / Fold change /veh KRT8 (11758188_x_at) / RFU NKD1 (11759106_at) / Fold change /veh NKD1 (11759106_at) / RFU SRD5A1 (11742802_a_at) / Fold change /veh SRD5A1 (11742802_a_at) / RFU TPSAB1 /// TPSB2 (11721975_s_at) / Fold change /veh TPSAB1 /// TPSB2 (11721975_s_at) / RFU GSTM3 (11746129_a_at) / Fold change /veh GSTM3 (11746129_a_at) / RFU IL23R (11737362_x_at) / Fold change /veh IL23R (11737362_x_at) / RFU TMEM51 (11727254_a_at) / Fold change /veh TMEM51 (11727254_a_at) / RFU PIWIL2 (11732686_x_at) / Fold change /veh PIWIL2 (11732686_x_at) / RFU ORM1 (11744905_x_at) / Fold change /veh ORM1 (11744905_x_at) / RFU CCDC152 (11743942_at) / Fold change /veh CCDC152 (11743942_at) / RFU ECM1 (11717891_a_at) / Fold change /veh ECM1 (11717891_a_at) / RFU IL23R (11748794_a_at) / Fold change /veh IL23R (11748794_a_at) / RFU TNFAIP8L3 (11732012_x_at) / Fold change /veh TNFAIP8L3 (11732012_x_at) / RFU MBOAT4 (11741988_at) / Fold change /veh MBOAT4 (11741988_at) / RFU 11764193_at / Fold change /veh 11764193_at / RFU TMEM53 (11763286_at) / Fold change /veh TMEM53 (11763286_at) / RFU MAGEB2 (11727129_at) / Fold change /veh MAGEB2 (11727129_at) / RFU TMEM200A (11744735_a_at) / Fold change /veh TMEM200A (11744735_a_at) / RFU CCDC152 (11751479_a_at) / Fold change /veh CCDC152 (11751479_a_at) / RFU FAM211A (11726209_a_at) / Fold change /veh FAM211A (11726209_a_at) / RFU RGS16 (11746705_a_at) / Fold change /veh RGS16 (11746705_a_at) / RFU VCAN (11755009_s_at) / Fold change /veh VCAN (11755009_s_at) / RFU RHOB (11743442_s_at) / Fold change /veh RHOB (11743442_s_at) / RFU RGS16 (11720943_a_at) / Fold change /veh RGS16 (11720943_a_at) / RFU RGS16 (11720944_at) / Fold change /veh RGS16 (11720944_at) / RFU, VPS4B / Fold change vs veh, VPS4B / RFU, CREB1 / Fold change vs veh, CREB1 / RFU, DNAJC13 / Fold change vs veh, DNAJC13 / RFU, GNAQ / Fold change vs veh, GNAQ / RFU, CDK5R1 / Fold change vs veh, CDK5R1 / RFU, ZRANB3 / Fold change vs veh, ZRANB3 / RFU, CUL4A / Fold change vs veh, CUL4A / RFU, CCNY / Fold change vs veh, CCNY / RFU, UFL1 / Fold change vs veh, UFL1 / RFU, COG3 / Fold change vs veh, COG3 / RFU, DIAPH2 / Fold change vs veh, DIAPH2 / RFU, SKA2 / Fold change vs veh, SKA2 / RFU, AFF3 / Fold change vs veh, AFF3 / RFU, LMF1 / Fold change vs veh, LMF1 / RFU, IPO11 / Fold change vs veh, IPO11 / RFU, DFFB / Fold change vs veh, DFFB / RFU, FOXP1 / Fold change vs veh, FOXP1 / RFU, CARD8 / Fold change vs veh, CARD8 / RFU, STRN3 / Fold change vs veh, STRN3 / RFU, ADK / Fold change vs veh, ADK / RFU, RASSF2 / Fold change vs veh, RASSF2 / RFU, WIPF1 / Fold change vs veh, WIPF1 / RFU, LARP1B / Fold change vs veh, LARP1B / RFU, RASA1 / Fold change vs veh, RASA1 / RFU, RB1 / Fold change vs veh, RB1 / RFU, PPFIA1 / Fold change vs veh, PPFIA1 / RFU, MAT2A / Fold change vs veh, MAT2A / RFU, CCT5 / Fold change vs veh, CCT5 / RFU, WDR92 / Fold change vs veh, WDR92 / RFU, CUX1 / Fold change vs veh, CUX1 / RFU, TTC7A / Fold change vs veh, TTC7A / RFU, TMEM135 / Fold change vs veh, TMEM135 / RFU, DEPTOR / Fold change vs veh, DEPTOR / RFU, CPM / Fold change vs veh, CPM / RFU, DNAJB6 / Fold change vs veh, DNAJB6 / RFU, CACNA2D3 / Fold change vs veh, CACNA2D3 / RFU, DTX4 / Fold change vs veh, DTX4 / RFU, TFCP2 / Fold change vs veh, TFCP2 / RFU, GMCL1 /// GMCL1P1 / Fold change vs veh, GMCL1 /// GMCL1P1 / RFU, AEBP2 / Fold change vs veh, AEBP2 / RFU, SNHG1 /// SNORD22 /// SNORD25 /// SNORD26 /// SNORD27 /// SNORD28 /// SNORD29 /// SNORD31 / Fold change vs veh, SNHG1 /// SNORD22 /// SNORD25 /// SNORD26 /// SNORD27 /// SNORD28 /// SNORD29 /// SNORD31 / Fold change (Aza/veh), C12orf56 (ProbeSet 11735607_a_at) / Fold change (ACY-1035/veh), C12orf56 (ProbeSet 11735607_a_at) / Fold change (Aza/veh), FGFR1OP (ProbeSet 11751329_s_at) / Fold change (ACY-1035/veh), FGFR1OP (ProbeSet 11751329_s_at) / Fold change (Aza/veh), VPS36 (ProbeSet 11739960_a_at) / Fold change (ACY-1035/veh), VPS36 (ProbeSet 11739960_a_at) / RFU SYPL1 (11715823_x_at) / Fold change /veh SYPL1 (11715823_x_at) / RFU IGFBP7 (11715501_s_at) / Fold change /veh IGFBP7 (11715501_s_at) / RFU REEP3 (11722064_at) / Fold change /veh REEP3 (11722064_at) / RFU IGLL1 (11728026_x_at) / Fold change /veh IGLL1 (11728026_x_at): dose or concentration left out as unconfirmed. The following applies: MV-4-11 cells, 48 hours.

`Nc1ccc(-c2cccs2)cc1NC(=O)c1ccc2c(c1)cc(C1CC1)n2CCN1CCOCC1` [ACY-1035]: the “Fold change /veh IRGQ (11745062_a_at)” value is listed as 0.91.

The record behind these values is PMC5218480 (PLoS ONE, 2017).
